These compounds were tested on warm-blooded animal (assay: Example II: tested as BW1433 was tested in Example I (obesity; ratio of muscle mass to fat)).
Type: in vivo, rats
Procedure: My initial studies were carried out following acute subcutaneous injections of the drug into male Sprague Dawley rats and into lean and into obese Zucker rats. Blood samples (100 microliter) were taken from the tail of the rats and measurements made of serum glycerol^6. Glycerol is an end product of lipolysis and thus an excellent indicator of the rate of whole body lipolysis. […] I discovered that in the absence of the Formula I compound tested, serum glycerol levels only differ slightly when comparing lean and obese animals. Since there is 3-4 times more fat in the obese animal this is good evidence for sluggish lipolysis per g of fat in the obese. The obese animals however seem to mobilize the fat at an earlier time after removal of their food supply (Table 1), since after 6 hours of fasting the obese serum glycerol levels are much higher than the lean.
Next, I studied the effect of chronic treatment with BW1433. For this purpose I employed 2 ml Alzet mini osmotic pumps. Each pump was loaded with 2 ml of a solution containing BW1433 or with vehicle (aqueous solution adjusted to pH II). The amount of BW1433 was adjusted so that the pump delivered either zero, 0.2 mg or 0.4 mg/Kg/hour to each animal. On the first day the animals had the pumps implanted and were given a priming (2 mg/Kg or 4 mg/Kg) dose of the antagonist. Blood was taken prior to surgery and six hours after the animals were removed from their food supply. On each subsequent day animals had free access to food and water overnight, then their food removed for six hours, and a blood sample taken.
In addition to taking blood samples for glycerol analysis, each animal was weighed every day for seven days. After seven days the animals were fasted overnight and a glucose tolerance test given The animals were then sacrificed and 1 ml blood sample taken for serum insulin and serum BW1433 determination drug levels. Insulin levels were measured with RIA kit (Diagnostic Products) and BW1433 levels were measured fluorometrically after HPLC separation at Burroughs Wellcome, Research Triangle Park, North Carolina. […] Nonetheless, when glucose tolerance curves were administered on day 7, drug-related differences could still be seen in all animals studied. […] This is illustrated more clearly in FIG. 4 where the area under the glucose tolerance curve is shown as a bar for each of the 6 groups of animals. […] FIG. 5 is a chart of the change in weight of treated and untreated lean and obese animals. […] The effect on weight change in each case was maximal at day 3, the day when the glycerol values peaked. Based on these remarkable results, the compounds of Formula I can be administered to obese warm-blooded animals as anti-obesity agents, or administered to farm animals to advantageously increase the ratio of muscle mass to fat therein.

Row | Structure (SMILES) | activity in method of treating obesity in a warm-blooded animal and in increasing the ratio of muscle mass to fat in farm animals
1 | Cn1c(=O)c2nc(-c3ccc(/C=C/C(=O)O)cc3)[nH]c2n(C)c1=O [compound 2, (E)-4-(1,2,3,6-tetrahydro-1,3-dimethyl-2,6-dioxo-9H-purin-8-yl)cinnamic acid] | active and effective
2 | CCCn1c(=O)c2nc(-c3ccc(/C=C/C(=O)O)cc3)[nH]c2n(C)c1=O [compound 3, (E)-4-(1,2,3,6-tetrahydro-3-methyl-2,6-dioxo-1-propyl-9H-purin-8-yl)cinnamic acid] | active and effective
3 | CCn1c(=O)c2nc(-c3ccc(/C=C/C(=O)O)cc3)[nH]c2n(CC)c1=O [compound 4, (E)-4-(1,3-diethyl-1,2,3,6-tetrahydro-2,6-dioxo-9H-purin-8-yl)cinnamic acid] | active and effective
4 | C=CCn1c(=O)c2nc(-c3ccc(/C=C/C(=O)O)cc3)[nH]c2n(CC=C)c1=O [compound 5, (E)-4-(1,3-diallyl-1,2,3,6-tetrahydro-2,6-dioxo-9H-purin-8-yl)cinnamic acid] | active and effective
5 | Cn1c(=O)[nH]c(=O)c2nc(-c3ccc(/C=C/C(=O)O)cc3)[nH]c21 [compound 6, (E)-4-(1,2,3,6-tetrahydro-3-methyl-2,6-dioxo-9H-purin-8-yl)cinnamic acid] | active and effective
6 | CCn1c(=O)[nH]c(=O)c2nc(-c3ccc(/C=C/C(=O)O)cc3)[nH]c21 [compound 7, (E)-4-(3-ethyl-1,2,3,6-tetrahydro-2,6-dioxo-9H-purin-8-yl)cinnamic acid] | active and effective
7 | CCCn1c(=O)[nH]c(=O)c2nc(-c3ccc(/C=C/C(=O)O)cc3)[nH]c21 [compound 8, (E)-4-(1,2,3,6-tetrahydro-2,6-dioxo-3-propyl-9H-purin-8-yl)cinnamic acid] | active and effective
8 | CC(C)Cn1c(=O)[nH]c(=O)c2nc(-c3ccc(/C=C/C(=O)O)cc3)[nH]c21 [compound 9, (E)-4-(1,2,3,6-tetrahydro-3-isobutyl-2,6-dioxo-9H-purin-8-yl)cinnamic acid] | active and effective
9 | CCCn1c(=O)n(C)c(=O)c2nc(-c3ccc(/C=C/C(=O)O)cc3)[nH]c21 [compound 10, (E)-4-(1,2,3,6-tetrahydro-1-methyl-2,6-dioxo-3-propyl-9H-purin-8-yl)cinnamic acid] | active and effective
10 | CC(C)Cn1c(=O)n(C)c(=O)c2nc(-c3ccc(/C=C/C(=O)O)cc3)[nH]c21 [compound 11, (E)-4-(1,2,3,6-tetrahydro-3-isobutyl-1-methyl-2,6-dioxo-9H-purin-8-yl)cinnamic acid] | active and effective
11 | CCn1c(=O)c2nc(-c3ccc(/C=C/C(=O)O)cc3)[nH]c2n(C)c1=O [compound 12, (E)-4-(1-ethyl-1,2,3,6-tetrahydro-3-methyl-2,6-dioxo-9H-purin-8-yl)cinnamic acid] | active and effective
12 | CCCCn1c(=O)c2nc(-c3ccc(/C=C/C(=O)O)cc3)[nH]c2n(CCCC)c1=O [compound 13, (E)-4-(1,3-dibutyl-1,2,3,6-tetrahydro-2,6-dioxo-9H-purin-8-yl)cinnamic acid] | active and effective
13 | O=C(O)/C=C/c1ccc(-c2nc3c(=O)n(Cc4ccccc4)c(=O)n(Cc4ccccc4)c3[nH]2)cc1 [compound 14, (E)-4-(1,3-dibenzyl-1,2,3,6-tetrahydro-2,6-dioxo-9H-purin-8-yl)cinnamicacid] | active and effective
14 | CCCCn1c(=O)n(C)c(=O)c2nc(-c3ccc(/C=C/C(=O)O)cc3)[nH]c21 [compound 15, (E)-4-(3-butyl-1,2,3,6-tetrahydro-1-methyl-2,6-dioxo-9H-purin-8-yl)cinnamicacid] | active and effective
15 | CCCCn1c(=O)c2nc(-c3ccc(/C=C/C(=O)O)cc3)[nH]c2n(C)c1=O [compound 16, (E)-4-(1-butyl-1,2,3,6-tetrahydro-3-methyl-2,6-dioxo-9H-purin-8-yl)cinnamic acid] | active and effective
16 | Cn1c(=O)c2nc(-c3ccc(/C=C/C(=O)O)cc3)[nH]c2n(Cc2ccccc2)c1=O [compound 17, (E)-4-(3-benzyl-1,2,3,6-tetrahydro-1-methyl-2,6-dioxo-9H-purin-8-yl)cinnamic acid] | active and effective
17 | CC(C)Cn1c(=O)c2nc(-c3ccc(/C=C/C(=O)O)cc3)[nH]c2n(CC(C)C)c1=O [compound 18, (E)-4-(1,2,3,6-tetrahydro-1,3-diisobutyl-2,6-dioxo-9H-purin-8-yl)cinnamic acid] | active and effective
18 | Cn1c(=O)c2[nH]c(-c3ccc(/C=C/C(=O)O)cc3)nc2n(C)c1=S [compound 19, (E)-4-(1,2,3,6-tetrahydro-1,3-dimethyl-6-oxo-2-thio-9H-purin-8-yl)cinnamicacid] | active and effective
19 | Cn1c(=O)c2nc(-c3ccc(/C=C/C(=O)O)cc3)[nH]c2n(Cc2ccc(C#N)cc2)c1=O [compound 20, (E)-4-[3-(4-cyanobenzyl)-1,2,3,6-tetrahydro-1-methyl-2,6-dioxo-9H-purin-8-yl]cinnamic acid] | active and effective
20 | Cn1c(=O)c2nc(-c3ccc(/C=C/C(=O)O)cc3)[nH]c2n(Cc2cccc(C#N)c2)c1=O [compound 21, (E)-4-[3-(3-cyanobenzyl)-1,2,3,6-tetrahydro-1-methyl-2,6-dioxo-9H-purin-8-yl]cinnamic acid] | active and effective
21 | CCCn1c(=O)c2nc(-c3ccc(C#CC(=O)O)cc3)[nH]c2n(CCC)c1=O [compound 22, 3-[4-(1,2,3,6-tetrahydro-2,6-dioxo-1,3-dipropyl-9H-purin-8-yl)phenyl]propiolic acid] | active and effective
22 | Cn1c(=O)n(Cc2ccc(C#N)cc2)c(=O)c2nc(-c3ccc(/C=C/C(=O)O)cc3)[nH]c21 [compound 23, (E)-4-[1-(4-cyanobenzyl)-1,2,3,6-tetrahydro-3-methyl-2,6-dioxo-9H-purin-8-yl]cinnamic acid] | active and effective
23 | CCCn1c(=O)n(Cc2ccccc2)c(=O)c2nc(-c3ccc(/C=C/C(=O)O)cc3)[nH]c21 [compound 24, (E)-4-(1-benzyl-1,2,3,6-tetrahydro-2,6-dioxo-3-propyl-9H-purin-8-yl)cinnamic acid] | active and effective
